The record followed here is paper PMC11302729, “Repurposing Hsp90 inhibitors as antimicrobials targeting two-component systems identifies compounds leading to loss of bacterial membrane integrity” (Microbiology Spectrum, 2024).

A short description of one data set: Haemolysis assay. The note with it: sheep, sheep red blood cells, 2% suspension; read-out: RBC hemolysis. The format is cell-based, sheep. An outline of the steps: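 Sheep erythrocytes at 2% in PBS exposed to compound, with untreated, 1% DMSO and 2% Triton-X controls. After centrifugation, supernatant haemoglobin read at 540 nm; % haemolysis = (test − DMSO)/(Triton − DMSO), quadruplicate.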

The subject of the next data set is HEK293 cells. Description: Cell imaging of HEK293 cells. The format is cell-based. The note with it: LC20, 24 hours exposure, 40× amplification. As for the experimental part:
HEK293 cells were plated in 24-well plates on exposure medium for 24 hours (500,000 cells/well). Cells were exposed to a subset of compounds at a lethal concentration of 20% (LC20). After 24 hours exposure, cells were fixed with 2% glutaraldehyde for 15 min, washed with water, permeabilized with 0.5% Triton-X, washed twice with water, and stained with Toluidine blue 0.3%. For 100× amplification, cells were harvested by pipetting up and down in 250 µL of exposure medium. Cells from three wells treated with the same compound were pooled and centrifuged for 5 min at 1,500 r.p.m. The cell pellet was fixed in 0.1 M cacodylate buffer containing 2% glutaraldehyde (vol/vol) (pH 7.4). After 1 hour on ice, the pellet was washed with 0.1 M cacodylate buffer and fixed in 0.1 M cacodylate buffer containing 1% osmium tetroxide (wt/vol). After a further hour on ice, the cell pellet was embedded in hard Epon and 1-µm slides were cut and stained with 1% toluidine blue and 1% borax (wt/vol). Cell abnormalities were assessed by microscopy using a Leica DM6B light microscope (Leica Microsystems B.V., Amsterdam, the Netherlands) at 100× magnification.

A further data set addresses S. aureus PhoR (Staphylococcus aureus, UniProt Q2FXN7). Description: HK autophosphorylation inhibition, PhoR. As to conditions: ± SD, n = 2; 10 mM ATP. Format: biochemical. Here is the method: Cytoplasmic domains from S. aureus PhoR and E. coli EnvZ as well the CA domain of Thermotoga maritima CheA were cloned in pNIC28-Bsa4 ([54]) plasmid containing His6-tag expressed in E. coli RIL and purified as previously described ([21], [55], [56]) using His-affinity and size exclusion chromatography. Briefly, E. coli RIL strains carrying the appropriate plasmid were grown in 1 L Luria broth (LB) (Merck Millipore) supplemented with kanamycin (100 µg/mL) with shaking (200 r.p.m.) at 37°C. When OD600 reached 0.5, 1 mM isopropyl-ß-D-1-thiogalactopyranoside (IPTG) was added to induce protein expression and cells were grown for 3 more hours. Cells were harvested by centrifugation (4,000 g, 4°C), resuspended in 40 mL buffer A (50 mM Tris-HCl pH 8.0, 0.5 M NaCl, 10% glycerol, and 1 mM phenylmethanesulfonyl fluoride), sonicated (4°C, 5 min with pulses of 15 sec at intervals of 1 min), and centrifuged (11,000 g, 4°C, 60 min). Supernatant was passed through a 5-mL HisTrap HP column (GE Healthcare) equilibrated in buffer A using the AKTA system (GE Healthcare). His-column was washed with buffer A (80 mL), and a linear gradient of imidazole (range 0 to 0.25 M) in buffer A was applied. The purest fractions evaluated by SDS-PAGE were collected, concentrated by ultrafiltration in a Amicon Ultra-15 (10- or 30-kDa exclusion) (Merck Millipore), and further purified by gel filtration using Superdex 200 column (GE Healthcare), equilibrated in buffer B (50 mM TrisHCl, pH 8.0, 0.2 M NaCl, and 5% glycerol). Purified proteins were then concentrated using ultrafiltration and stored at −80°C.
Autophosphorylation inhibition assays were performed in kinase assay buffer [100 mM Tris-HCl (pH 8.0), 5 mM MgCl2, 10 mM DTT], containing 5 µg of purified HK and 10 mM ATP for 30 min at 25°C. The reaction was stopped by adding gel loading buffer containing 16% SDS before loading the reaction on a 12% SDS-PAGE. […] The phosphorylated histidine was detected by western blotting by then incubating the membrane for 60 min with 1:1,000 anti-N1-phosphohistidine antibody (Merck Millipore) in TBS-T followed by a washing step for 30 min with TBS-T and a final 60-min incubation with 1:10,000 horseradish […] anti-rabbit IgG (Promega) in TBS-T. Chemiluminescent reaction was measured using Pierce ECL immunoblotting substrate (Thermo Scientific) in a LAS 3000 image analyzer (Fujifilm Life Science, Tokyo, Japan) followed by densitometric analysis using Multi Gauge image-analysis software (Fujifilm Life Science, Tokyo, Japan). The inhibitor concentrations required to halve the chemiluminescence intensity (IC50) were determined using Prism 4.1 (GraphPad Software, San Diego, CA, USA).

Chain of S. aureus PhoR (Q2FXN7 entry or part of it): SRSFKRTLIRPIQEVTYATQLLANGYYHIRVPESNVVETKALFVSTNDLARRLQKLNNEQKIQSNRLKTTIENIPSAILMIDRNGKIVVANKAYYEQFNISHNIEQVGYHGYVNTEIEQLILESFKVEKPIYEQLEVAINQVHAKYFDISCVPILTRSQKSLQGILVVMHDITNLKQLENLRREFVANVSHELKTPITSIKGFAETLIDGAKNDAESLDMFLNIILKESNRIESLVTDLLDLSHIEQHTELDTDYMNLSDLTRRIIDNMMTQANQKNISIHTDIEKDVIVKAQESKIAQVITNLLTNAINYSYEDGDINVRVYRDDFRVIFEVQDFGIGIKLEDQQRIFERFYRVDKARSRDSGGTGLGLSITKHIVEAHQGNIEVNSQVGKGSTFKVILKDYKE

On to `Oc1ccc(-c2n[nH]c(C(F)(F)F)c2-c2ccc(Cl)cc2)c(O)c1` [DPP-5], for which the hemolysis at 30 min in “Haemolysis assay” was determined as 100%. Besides, the “Morphological changes of HEK293 cells” value with HEK293 cells was “membrane blebbing”. Half-maximal inhibition against S. aureus PhoR (IC50) required 95 ± 5.6 µM.
Taken in the same sequence, the figures for `COc1ccc(-c2[nH]nc(C(F)(F)F)c2-c2ccc(Cl)cc2)c(O)c1` [DPP-6] were 100%, “membrane blebbing” and 55 ± 3.8 µM.
In turn, `COc1ccc(-c2c(C(F)(F)F)n[nH]c2-c2ccc(O)cc2O)cc1` [DPP-12] yielded an IC50 on S. aureus PhoR of 328 ± 4.1 µM.
On S. aureus PhoR, `COc1ccc(-c2c(C(F)(F)F)n[nH]c2-c2ccc(OC)cc2O)cc1` [DPP-13] showed a concentration for half-maximal inhibition (IC50) of 89 ± 6.9 µM.
